Data set [1] in a line: Particle size distribution of the precipitate measured with a Malvern Mastersizer 2000. The format is physicochemical. The note with it: precipitated particles; for D50 of this batch / D90 of this batch: ethanol/water, Malvern Mastersizer 2000. An excerpt: Preferably, the precipitated organic compound is in particulate form and has a D50 of less than 500 nm, more preferably less than 400 nm, even more preferably of less than 300 nm, and in particular less than 200 nm. The D50 can be measured by techniques known in the art, e.g. laser diffraction according to method ISO 13320-1 using e.g. a Malvern Mastersizer 2000 particle size analyser.
The particle size distribution is wide, including many particles of 10 μm edge length or more. […] The D50 of this batch is 14.59 μm. So 50% of all particles have a volume median size which is smaller than 14.59 μm. The D90 of this batch is 36.22 μm.
Particle size distribution was measured with a Malvern Mastersizer 2000. The D50 of this batch is 9.17 μm. The D90 of this batch is 18.72 μm. (FIG. 8)

Data set [2] can be described thus: Saturation concentration in ethanol. The format is physicochemical. The note with it: 325 K.

`CC(=O)[C@H]1CC[C@H]2[C@@H]3CC=C4C[C@@H](O)CC[C@]4(C)[C@H]3CC[C@]12C` [Comparative Example 3, pregnenolone]: in data set [1], the “particle size distribution (shape, in words)” value is reported as “narrower particle size distribution than Comparative Example 2”; the “D50 of this batch” value turned out to be 9.17 μm; the “D90 of this batch” value was 18.72 μm.
The corresponding values for `CC(=O)[C@H]1CC[C@H]2[C@@H]3CC=C4C[C@@H](O)CC[C@]4(C)[C@H]3CC[C@]12C` [Comparative Example 1, pregnenolone] are “wide”, 14.59 μm and 36.22 μm.
As for `CC(=O)[C@H]1CC[C@H]2[C@@H]3CC=C4C[C@@H](O)CC[C@]4(C)[C@H]3CC[C@]12C` [Inventive Example 1, pregnenolone], in data set [1], the “particle size distribution (shape, in words)” value is “narrow”; the “D50 of this batch” value was found to be 9.17 μm; the “D90 of this batch” value was determined as 18.72 μm.
Turning to `CC(=O)[C@H]1CC[C@H]2[C@@H]3CC=C4C[C@@H](O)CC[C@]4(C)[C@H]3CC[C@]12C` [pregnenolone], the “saturation conc. in EtOH” value in data set [2] amounted to 34 g/L.

The record behind these values is US20120141788A1, “PROCESS AND DEVICE FOR THE PRECIPITATION OF AN ORGANIC COMPOUND” (Fujifilm Manufacturing Europe B.V., priority 2006, published 2012).
